Legend:
[1] = CO2 solubility (CO2 partial pressure) measured in the wetted wall column; format: physicochemical
Text: (§1) VLE models of CO2 partial pressure were regressed from experimental data to calculate CO2 capacity and enthalpy of CO2 absorption (ΔHabs). […] MPZ and PZ-MPZ both have a slightly higher capacity than PZ. PZ-MPZ absorbs CO2 at a slightly slower rate than 8 m PZ at rich loading, about 50% faster than 7 m MEA. kg′ for MPZ is the same to 7 m MEA. Heat of CO2 absorption for PZ-MPZ (ΔHabs=70 kJ/mol) and MPZ (72 kJ/mol) is close to that for PZ (70 kJ/mol).
CO2 solubility for PZ-MPZ and MPZ are shown in FIG. 3 and FIG. 4, respectively. The filled points are experimental data at varied loadings and temperatures. Parameters for the following semi-empirical VLE equation (Equation 3) were regressed and the model was presented as solid curves in the figures. The curves fit the points satisfactorily. ln P=a+b/T+c·α+d·α/T+e·α^2 Eqn. 3
CO2 solubility for 1-MPZ and the PZ blend are shown in FIG. 11 and FIG. 12 respectively. The filled points are experimental data at varied loadings and temperatures. Parameters for the following semi-empirical VLE equation ln P=a+b/T+c·α+d·α/T+e·α^2 (Eqn. 3) were regressed and the model was presented as curves in the figures. α is the CO2 loading defined as nCO2/nalka. The curves fit the points satisfactorily.

[2] = CO2 absorption/desorption rate (liquid film mass transfer coefficient kg′) in the wetted wall column; format: physicochemical
Text: The CO2 absorption rate of a particular amine may be useful in determining whether an amine is desirable for acidic gas removal. In general, a greater rate of CO2 absorption will allow for the use of less packing, reduced lean loading, or greater rich loading, which in turn can reduce energy consumption. The rate of CO2 absorption can be characterized as the normalized flux, kg′ (gmol/m^2-s-Pa), measured in a model contactor such as a wetted wall column. Similarly, a greater heat of CO2 desorption will reduce the energy requirement of an absorber/stripper relying upon temperature swing regeneration.
as §1
In FIG. 5, absorption/desorption rates for PZ-MPZ at 40° C., 60° C., 80° C. and 100° C. are compared with that of 7 m MEA and 8 m PZ at 40° C.
In FIG. 13 and FIG. 14, absorption/desorption rates for 1-MPZ and the PZ blend at 40° C., 60° C., 80° C. and 100° C. are compared with that of 7 m MEA and 8 m PZ at 40° C.

[3] = Cyclic CO2 capacity calculated from the regressed VLE model; format: physicochemical
[4] = Heat of CO2 absorption calculated from the VLE model; format: physicochemical
Experimental: VLE models of CO2 partial pressure were regressed from experimental data to calculate CO2 capacity and enthalpy of CO2 absorption (ΔHabs).
Heat of absorption was calculated from the model mentioned above by applying the following thermodynamic equation: […]
Heat of absorption was calculated from the model mentioned above by applying the Gibbs-Helmholtz equation: […]
The heat absorption of CO2 at a 1.5 kPa, which is an average CO2 partial pressure for lean and rich solutions, was calculated.

[5] = Thermal degradation in sealed stainless steel cylinders at 150° C., loss of original amine over time; format: physicochemical; conditions: 8 m 1-MPZ, end of the experiment (30 weeks)
Experimental: Samples of each solution were contained in stainless steel, well-sealed cylinders and placed in a forced-convection oven for extended periods of time. The loss of the original amine is tracked over time to determine the rate of thermal degradation.
The thermal degradation of 8 m 1-MPZ at 150° C. was studied. The main degradation products are PZ, 1,4-DMPZ, formyl amides, and formate.
The thermal degradation of a blend of 4 m PZ and 4 m 1-MPZ at 150° C. was previously studied. […] Based on the results of the 8 m 1-MPZ experiment discussed above, 1,4-DMPZ was expected to be produced as a degradation product.
Solutions with varying compositions were placed in thermal cylinders at 150° C. for up to 15 weeks. At this temperature, some degradation will occur, but the conversion between PZ, 1-MPZ, and 1,4-DMPZ should be able to be observed. Three starting solutions were used: 5 m PZ+2 m 1-MPZ+1 m 1,4-DMPZ (5/2/1), 5 m PZ+2.5 m 1-MPZ+0.5 m 1,4-DMPZ (5/2.5/0.5), and 5 m PZ+1.5 m 1-MPZ+[…]. To establish the blend concentrations, it was originally hypothesized that the equilibrium concentration would be 5/2/1. Therefore, that blend, as well as two blends with increased or decreased 1-MPZ concentrations were used and the concentration of 1,4-DMPZ was adjusted to maintain a total concentration of 8 m.

[6] = Solubility and solids precipitation limits of amines in water; format: physicochemical
[7] = Solubility measurements of CO2 loaded PZ/1-MPZ/1,4-DMPZ blends; format: physicochemical
Experimental: Solubility measurements for CO2 loaded 3.9 m PZ/3.9 m 1-MPZ/0.2 m 1,4-DMPZ and 3.75 m PZ/3.75 m 1-MPZ/0.5 m 1,4-DMPZ solutions were taken to predict the solubility envelope of these blends. The solubility of the blends at varying loadings and temperatures are shown in FIG. 7 for the 3.9 m PZ/3.9 m 1-MPZ/0.2 m 1,4-DMPZ blend and in FIG. 8 for the 3.75 m PZ/3.75 m 1-MPZ/0.5 m 1,4-DMPZ blend. […] At 0° C., the 8 m blend: 3.75 m PZ/3.75 m 1-MPZ/0.5 m […] was soluble at 2° C. with a lean loading of 0.17 mol CO2/mol alkalinity, in contrast to 8 m PZ, which must be operated at loading above 0.3 to avoid solids precipitation.
A maximum CO2 loading of 0.41 and 0.39 was obtained for the 3.9 m PZ/3.9 m 1-MPZ/0.2 m 1,4-DMPZ blend and the 3.75 m PZ/3.75 m 1-MPZ/0.5 m 1,4 DMPZ blend respectively at room temperature without any solid precipitation. Intermediary loaded solutions were prepared by appropriately mixing the rich loaded and zero loaded solutions and observed at temperatures between 0° C. and the melting point of the solution.

[8] = 298K; cited from earlier work
[9] = ambient temperature; cited from earlier work
[10] = Conc. (m): MDEA/PZ 7/2, PZ 8, MEA 7, HEP 7.7, AEP 6, 2-PE 8, AMP 4.8, EDA 12, DGA 10, PZ-MPZ 4/4, MPZ 8

CC1CNCCN1 (racemic) [2MPZ, 2-methyl piperazine]
PCO2 ([1]; Temp 40° C., CO2 Loading 0.102 mol/mol alka, 8 m MPZ): 0.01 kPa
PCO2 ([1]; Temp 40° C., CO2 Loading 0.154 mol/mol alka, 8 m MPZ): 0.04 kPa
PCO2 ([1]; Temp 40° C., CO2 Loading 0.203 mol/mol alka, 8 m MPZ): 0.12 kPa
PCO2 ([1]; Temp 40° C., CO2 Loading 0.253 mol/mol alka, 8 m MPZ): 0.32 kPa
PCO2 ([1]; Temp 40° C., CO2 Loading 0.3 mol/mol alka, 8 m MPZ): 0.96 kPa
PCO2 ([1]; Temp 40° C., CO2 Loading 0.365 mol/mol alka, 8 m MPZ): 4.73 kPa
PCO2 ([1]; Temp 60° C., CO2 Loading 0.102 mol/mol alka, 8 m MPZ): 0.09 kPa
PCO2 ([1]; Temp 60° C., CO2 Loading 0.154 mol/mol alka, 8 m MPZ): 0.29 kPa
PCO2 ([1]; Temp 60° C., CO2 Loading 0.203 mol/mol alka, 8 m MPZ): 0.86 kPa
PCO2 ([1]; Temp 60° C., CO2 Loading 0.253 mol/mol alka, 8 m MPZ): 2.26 kPa
PCO2 ([1]; Temp 60° C., CO2 Loading 0.3 mol/mol alka, 8 m MPZ): 4.87 kPa
PCO2 ([1]; Temp 60° C., CO2 Loading 0.365 mol/mol alka, 8 m MPZ): 22.41 kPa
PCO2 ([1]; Temp 80° C., CO2 Loading 0.102 mol/mol alka, 8 m MPZ): 0.59 kPa
PCO2 ([1]; Temp 80° C., CO2 Loading 0.154 mol/mol alka, 8 m MPZ): 1.80 kPa
PCO2 ([1]; Temp 80° C., CO2 Loading 0.203 mol/mol alka, 8 m MPZ): 4.06 kPa
PCO2 ([1]; Temp 80° C., CO2 Loading 0.253 mol/mol alka, 8 m MPZ): 9.72 kPa
PCO2 ([1]; Temp 80° C., CO2 Loading 0.3 mol/mol alka, 8 m MPZ): 22.06 kPa
PCO2 ([1]; Temp 100° C., CO2 Loading 0.102 mol/mol alka, 8 m MPZ): 2.68 kPa
PCO2 ([1]; Temp 100° C., CO2 Loading 0.154 mol/mol alka, 8 m MPZ): 7.39 kPa
PCO2 ([1]; Temp 100° C., CO2 Loading 0.203 mol/mol alka, 8 m MPZ): 18.65 kPa
absorption/desorption rate (kg′) compared with PZ and MEA ([2]; 0.5 kPa to 5 kPa P*CO2, comparators 7 m MEA and 8 m PZ at 40° C.): between MEA and PZ
CO2 Capacity [3, 10]: 0.93 mol/kg (water + amine)
Heat of CO2 absorption (ΔHabs) ([4]; 8 m MPZ, 4 m PZ/4 m MPZ blend, 8 m PZ): 72 kJ/mol
ΔHabs@PCO2 = 1.5 kPa [4, 10]: 72 kJ/mol
solubility over CO2 loading: highly soluble over the full range of CO2 loading

CN1CCNCC1 [1-MPZ, 1-methyl piperazine]
initial carbon not recovered in the form of the listed products [5]: 21%
PCO2 ([1]; Temp 40° C., CO2 Loading 0.10 mol/mol alka, 8 m 1-MPZ): 0.10 kPa
PCO2 ([1]; Temp 40° C., CO2 Loading 0.20 mol/mol alka, 8 m 1-MPZ): 1.32 kPa
PCO2 ([1]; Temp 40° C., CO2 Loading 0.26 mol/mol alka, 8 m 1-MPZ): 5.55 kPa
PCO2 ([1]; Temp 40° C., CO2 Loading […] alka, 8 m 1-MPZ): 0.35 kPa
PCO2 ([1]; Temp 60° C., CO2 Loading 0.10 mol/mol alka, 8 m 1-MPZ): 0.62 kPa
PCO2 ([1]; Temp 60° C., CO2 Loading 0.20 mol/mol alka, 8 m 1-MPZ): 6.41 kPa
PCO2 ([1]; Temp 60° C., CO2 Loading 0.26 mol/mol alka, 8 m 1-MPZ): 22.95 kPa
PCO2 ([1]; Temp 60° C., CO2 Loading […] alka, 8 m 1-MPZ): 2.15 kPa
PCO2 ([1]; Temp 80° C., CO2 Loading 0.10 mol/mol alka, 8 m 1-MPZ): 3.66 kPa
PCO2 ([1]; Temp 80° C., CO2 Loading 0.20 mol/mol alka, 8 m 1-MPZ): 25.30 kPa
PCO2 ([1]; Temp 80° C., CO2 Loading […] alka, 8 m 1-MPZ): 10.10 kPa
PCO2 ([1]; Temp 100° C., CO2 Loading 0.10 mol/mol alka, 8 m 1-MPZ): 12.84 kPa
PCO2 ([1]; Temp 100° C., CO2 Loading […] alka, 8 m 1-MPZ): 33.01 kPa
absorption/desorption rate compared with 8 m PZ and 7 m MEA ([2]; 0.5 kPa to 5 kPa CO2 partial pressure, comparators at 40° C.): nearly the same as 8 m PZ and much higher than 7 m MEA
cyclic CO2 capacity ([3]; difference between lean and rich CO2 loading at 500 Pa and 5,000 Pa CO2 partial pressure): 0.83 mol CO2/kg (water+amine)
heat absorption of CO2 ([4]; at 1.5 kPa CO2 partial pressure): 67 kJ/mol
miscibility with water [6]: fully miscible with water
precipitation when mixing only the amine in water [7]: no precipitation
first pKa [8]: 9.14
second pKa [8]: 4.63

C1CNCCN1.O.O.O.O.O.O [piperazine hexahydrate]
solubility in water [9]: about 2 moles/kg H2O

— patent US8816078B2, “Acidic gas removal by aqueous amine solvents” (Board of Regents, The University of Texas System, priority 2010, dated 2014)
